Measured values from patent publication US5789439A, “Pharmaceutical use of forskolin derivatives” (Nippon Kayaku Kabushiki Kaisha, priority 1990, dated 1998).
Structures can show the parent of a compound that is named as a salt.

Experiments:
[1] = test system: total peripheral vascular resistance; experiment: Effect on peripheral vascular resistance in anesthetized dogs; format: in vivo, dog; conditions: for Change in total peripheral vascular resistance: mean ± SE
Experimental: (2) Effect on peripheral vascular resistance in an anesthetized dogs was examined. Blood pressure was measured with a pressure transducer (CP-01 mfd. by Century Technology Co.) connected to a polyethylene tube inserted into a right femoral artery of a dog anesthetized with pentobarbital, and the cardiac output was measured according to a thermodilution method by using a dilution type cardiac output counter (MLC-4200 mfd. by Nihon Kohden K. K.) and a 7F thermodilution catheter (TC-704 mfd. by Nihon Kohden K. K.) inserted into the pulmonary artery through the right femoral vein. The total peripheral vascular resistance was determined by dividing the mean blood pressure by the cardiac output. NKH-477 was dissolved in a physiological saline and infused into a right cephalic vein at rates of 0.15, 0.3 and 0.6 μg/kg/min (flow rate: 0.2 ml/min) for 2 hours by using a continuous injection pump (Model 975C mfd. by Harvard Corp.). For the control, physiological saline was similarly infused at a rate of 0.2 ml/min.

[2] = test system: whole-stratum skin cut-off model (skin ulcer); experiment: Remedial effect for skin ulcer, whole-stratum skin cut-off model in rats; format: in vivo, male Wister rats; conditions: for Lesion reduction rate in whole-stratum skin cut-off model: 1 ml of 1 mg/ml applied daily, mean, n = 2
Experimental: The remedial effect of NKH-477 for skin ulcer was ascertained by the following test.
The abdominal region of each of the test animals--male Wister rats (10 weeks old and weighing 350-390 g) divided into groups of 2--was […] and a piece of skin of about 3 cm in diameter was cut off from said abdominal region of each test rat under anesthesia with pentobarbital (40 mg/kg, i.p.) to prepare a whole-stratum skin cut-off model, and it was used as a skin ulcer model. NKH-477 was used as the test compound (specimen) while a physiological saline was used as control. The specimen was dissolved in a physiological saline (1 mg/ml), and 1 ml of the solution was applied directly to the affected region every day, the treated part being covered with gauze fixed in position. The areas of lesion after the lapse of 1 day, 2 days, 3 days and 5 days from start of application of the specimen solution were measured by a digitizer to determine the lesion reduction rate, from which the skin ulcer curative effect of the test compound was evaluated.

[3] = test system: total peripheral vascular resistance; experiment: Effect on peripheral vascular resistance in human; format: in vivo; conditions: i.v. 0.4 μg/kg/min, 40 minutes from start; four healthy adults; saline 1.7%
Experimental: (3) Effect on peripheral vascular resistance in human was examined.
A freeze-dried preparation comprising NKH-477 was dissolved in a physiological saline and continuously administered intravenously to four healthy adults at a rate of 0.4 μg/kg/min for one hour.
The rate of reduction of total peripheral vascular resistance after 40 minutes from the start of administration was determined for each subject from mean blood pressure and cardiac output calculated from Ultrasonic cardiography (UCG).

[4] = test system: epinephrine-induced aggregation; experiment: Epinephrine-induced aggregation after intravenous administration to healthy adults; format: in vivo, healthy adults (human); conditions: i.v. 0.8 μg/kg/min for one hour, mean of four subjects
Experimental: (§1) A freeze-dried preparation comprising NKH-477 was dissolved in a physiological saline and administered intravenously to four healthy adults at a rate of 0.8 μg/kg/min for one hour. The degrees of ADP-induced aggregation, epinephrine-induced aggregation and collagen-induced aggregation upon end of administration were measured and compared with those before administration (each figure is the average of measurements on the four subjects).

canine coronary artery = experiment: Spasmolytic effect on KCl-induced contraction, canine coronary artery ring; conditions: for Inhibition rate, Coronary artery: 30 mM KCl, papaverine 10^-4 M = 100%, mean ± SE, n = 6
Experimental: (§2) The canine coronary and basilar arteries were extirpated under anesthesia with pentobarbital to prepare the 3 mm wide ring preparation. Each preparation was suspended in a 10-ml organ bath filled with a Krebs-Henseleit solution by applying a static tension of 1.5 g (for the coronary artery) and 1.0 g (for the basilar artery). The nutrient solution was maintained at 37° C. and aerated with a 95% 02 /5% CO2 gas. The isometric mascular tension was measured with an FD pickup (TB-611T mfd. by Nihon Kohden K. K.) and recorded on a recorder (TI-104 mfd. by Tokai IRIKA K. K.).
(§3) After about 2 hours of equilibrium time, contraction was induced with 30 mM of KCl (for coronary artery) and 35 mM of KCl (for basilar artery), and after contraction was stabilized, NKH-477 was administered cumulatively. The spasmolytic effect was expressed as percentages of the inhibition, with the maximal inhibition obtained with papaverine hydrochloride (10^-4 M) being supposed to have shown 100% inhibition.

canine basilar artery = experiment: Spasmolytic effect on KCl-induced contraction, canine basilar artery ring; conditions: for Inhibition rate, Basilar artery: 35 mM KCl, papaverine 10^-4 M = 100%, mean ± SE, n = 3
Experimental: as §2, §3

ADP-induced aggregation = ADP-induced aggregation after intravenous administration to healthy adults; format: in vivo, healthy adults (human); conditions: i.v. 0.8 μg/kg/min for one hour, mean of four subjects
Experimental: as §1

## C=C[C@@]1(C)CC(=O)[C@]2(O)[C@@]3(C)[C@@H](O)CCC(C)(C)[C@@H]3[C@H](OC(=O)CCN(C)C)[C@H](OC(C)=O)[C@@]2(C)O1 [NKH-477, 6-(3-dimethylaminopropionyl)forskolin hydrochloride]
[1]; 0.15 μg/kg/min, 10 min from start of infusion, control 2.1 ± 1.5
  Change in total peripheral vascular resistance: -2.7 ± 2.4%
[1]; 0.15 μg/kg/min, 30 min after cessation of infusion, control 31.4 ± 13.9
  Change in total peripheral vascular resistance: 7.4 ± 7.4%
[1]; 0.15 μg/kg/min, 30 min from start of infusion, control 4.0 ± 2.3
  Change in total peripheral vascular resistance: -6.2 ± 3.7%
[1]; 0.15 μg/kg/min, 60 min after cessation of infusion, control 29.1 ± 9.7
  Change in total peripheral vascular resistance: 15.7 ± 10.4%
[1]; 0.15 μg/kg/min, 60 min from start of infusion, control 13.8 ± 3.4
  Change in total peripheral vascular resistance: -9.1 ± 5.7%
[1]; 0.15 μg/kg/min, 120 min after cessation of infusion, control 26.8 ± 12.5
  Change in total peripheral vascular resistance: 12.8 ± 7.2%
[1]; 0.15 μg/kg/min, 120 min from start of infusion, control 20.5 ± 9.2
  Change in total peripheral vascular resistance: -5.7 ± 6.6%
[1]; 0.3 μg/kg/min, 10 min from start of infusion, control 2.1 ± 1.5
  Change in total peripheral vascular resistance: -3.7 ± 2.9%
[1]; 0.3 μg/kg/min, 30 min after cessation of infusion, control 31.4 ± 13.9
  Change in total peripheral vascular resistance: 6.7 ± 7.0%
[1]; 0.3 μg/kg/min, 30 min from start of infusion, control 4.0 ± 2.3
  Change in total peripheral vascular resistance: -10.4 ± 3.1%
[1]; 0.3 μg/kg/min, 60 min after cessation of infusion, control 29.1 ± 9.7
  Change in total peripheral vascular resistance: 17.1 ± 6.0%
[1]; 0.3 μg/kg/min, 60 min from start of infusion, control 13.8 ± 3.4
  Change in total peripheral vascular resistance: -10.2 ± 4.1%
[1]; 0.3 μg/kg/min, 120 min after cessation of infusion, control 26.8 ± 12.5
  Change in total peripheral vascular resistance: 17.2 ± 9.2%
[1]; 0.3 μg/kg/min, 120 min from start of infusion, control 20.5 ± 9.2
  Change in total peripheral vascular resistance: -11.5 ± 4.7%
[1]; 0.6 μg/kg/min, 10 min from start of infusion, control 2.1 ± 1.5
  Change in total peripheral vascular resistance: -18.3 ± 8.6%
[1]; 0.6 μg/kg/min, 30 min after cessation of infusion, control 31.4 ± 13.9
  Change in total peripheral vascular resistance: -13.4 ± 7.6%
[1]; 0.6 μg/kg/min, 30 min from start of infusion, control 4.0 ± 2.3
  Change in total peripheral vascular resistance: -28.1 ± 5.9%
[1]; 0.6 μg/kg/min, 60 min after cessation of infusion, control 29.1 ± 9.7
  Change in total peripheral vascular resistance: -4.1 ± 9.1%
[1]; 0.6 μg/kg/min, 60 min from start of infusion, control 13.8 ± 3.4
  Change in total peripheral vascular resistance: -29.0 ± 6.4%
[1]; 0.6 μg/kg/min, 120 min after cessation of infusion, control 26.8 ± 12.5
  Change in total peripheral vascular resistance: 11.8 ± 12.9%
[1]; 0.6 μg/kg/min, 120 min from start of infusion, control 20.5 ± 9.2
  Change in total peripheral vascular resistance: -28.0 ± 5.4%
[1]; after cessation of the infusion
  recovery of total peripheral vascular resistance: substantially restored in 2 hours after cessation of the infusion
[1]; i.v. infusion 0.15-0.6 μg/kg/min for 2 hours
  total peripheral vascular resistance, course in words: decreased gradually after the start of infusion
[2]; 1 day elapsed, control 26.4
  Lesion reduction rate in whole-stratum skin cut-off model: 31.7%
[2]; 2 days elapsed, control 36.9
  Lesion reduction rate in whole-stratum skin cut-off model: 50.8%
[2]; 3 days elapsed, control 45.5
  Lesion reduction rate in whole-stratum skin cut-off model: 56.4%
[2]; 5 days elapsed, control 66.8
  Lesion reduction rate in whole-stratum skin cut-off model: 79.1%
[2]; as compared with the control
  curing of skin ulcer: curing of skin ulcer is promoted
[3]
  average reduction rate of total peripheral vascular resistance: 19.7%
[4]; before administration 47.0%
  Epinephrin-induced aggregation upon end of administration: 31.8%
[4]
  Inhibition rate, Epinephrin-induced aggregation: 39.6%
Canine coronary artery; Canis lupus familiaris, KCl-induced contraction, n=6
  IC50: 67.3 nM
Canine coronary artery; Table 3, in words
  inhibitory action against KCl-induced contraction in the coronary artery: concentration-dependent inhibitory action
Canine coronary artery; line 1 of 5, printed 10^-9 M
  Inhibition rate, Coronary artery: 6.1 ± 1.6%
Canine coronary artery; line 2 of 5, printed 10^-9 M
  Inhibition rate, Coronary artery: 23.3 ± 3.2%
Canine coronary artery; line 3 of 5, printed 10^-9 M
  Inhibition rate, Coronary artery: 58.8 ± 3.9%
Canine coronary artery; line 4 of 5, printed 10^-9 M
  Inhibition rate, Coronary artery: 86.7 ± 1.5%
Canine coronary artery; line 5 of 5, printed 10^-9 M
  Inhibition rate, Coronary artery: 94.5 ± 1.3%
Canine basilar artery; Canis lupus familiaris, KCl-induced contraction, n=3
  IC50: 102 nM
Canine basilar artery; Table 3, in words
  inhibitory action against KCl-induced contraction in the basilar artery: concentration-dependent inhibitory action
Canine basilar artery; line 1 of 5
  Inhibition rate, Basilar artery: 3.8 ± 2.0%
Canine basilar artery; line 2 of 5
  Inhibition rate, Basilar artery: 22.1 ± 3.3%
Canine basilar artery; line 3 of 5
  Inhibition rate, Basilar artery: 52.0 ± 5.3%
Canine basilar artery; line 4 of 5
  Inhibition rate, Basilar artery: 78.3 ± 1.2%
Canine basilar artery; line 5 of 5
  Inhibition rate, Basilar artery: 89.2 ± 0.6%
ADP-induced aggregation; before administration 68.5%
  ADP-induced aggregation upon end of administration: 57.5%
ADP-induced aggregation
  Inhibition rate, ADP-induced aggregation: 21.7%
